Values of other authors in article PMC5599218 (Biomaterials, 2017).
Where “and” joins values, the source holds several entries; their conditions need not be identical. Equal entries are not always repeated.

Columns and labels:
[1] = women using DPV vaginal rings for 7d; ref [54]
[2] = DPV vaginal films, after 6h exposure, estimated; ref [59]
HIV-1 = conditions: ref [52]
[3] = oral daily dosing, 12h after the last dose; ref [52]

| Mean vaginal fluid concentrations of DPV [1] [µg/mL] | DPV provided to human cervical explant tissues [2] | Structure (SMILES) | in vitro IC50 (HIV-1) | ETR concentration in cervicovaginal fluid (CVF) [3] [µg/mL] |
| --- | --- | --- | --- | --- |
| 0.7 to 7.1 | 152–334 nM and 0.05–0.11 μg/mL | Cc1cc(C)c(Nc2ccnc(Nc3ccc(C#N)cc3)n2)c(C)c1 [DPV, Dapivirine] |  |  |
|  |  | Cc1cc(C#N)cc(C)c1Oc1nc(Nc2ccc(C#N)cc2)nc(N)c1Br [ETR, etravirine] | ~ 2 ng/mL | 0.857 |
